Tests used:
[1] = test system: S. pneumoniae D39V; experiment: Bliss interaction score (quartile over a dose matrix) (fitness difference); higher = more antagonism (negative = synergy)
Method in brief: (§1)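 The Bliss score takes observed fitness and subtracts the expected fitness, calculated as a product of single-drug fitness values. Those single-drug values were inferred from the combination data. Fitness is OD595 at entry into stationary phase divided by the plate's robust no-drug mean, capped at 1, and the score is summarised by quartiles across technical, biological and donor/recipient replicates.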

[2] = test system: B. subtilis 168; experiment: as above
Method in brief: as §1

[3] = test system: S. aureus Newman; experiment: as above
Method in brief: as §1

[4] = test system: S. aureus DSM 20231; experiment: as above
Method in brief: as §1

[5] = test system: S. pneumoniae D39V; experiment: fitness (endpoint OD595 vs no drug) (fraction); higher = more growth
Method in brief: (§2)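 Fitness was defined as the optical density at the transition into stationary phase relative to the robust mean of no-drug control wells. Values were capped at 1. Cultures were started at OD595 0.01 in 384-well plates (30 µl, or 55 µl for S. pneumoniae) in TSB, LB Lennox or CY at 37 °C. OD595 was recorded every 30 min over 14 h, with the first reading subtracted as background.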

[6] = test system: B. subtilis 168; experiment: as above
Method in brief: as §2

[7] = test system: S. aureus Newman; experiment: as above
Method in brief: as §2

[8] = test system: S. aureus DSM 20231; experiment: as above
Method in brief: as §2
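For Bliss interaction score (quartile over a dose matrix) in this document: first quartile when negative (synergy) and third quartile when positive (antagonism).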

O=C(O[C@@H]1Cc2c(O)cc(O)cc2O[C@@H]1c1cc(O)c(O)c(O)c1)c1cc(O)c(O)c(O)c1 [EGCG] + CN(N=O)C(=O)N[C@@H](C=O)[C@@H](O)[C@H](O)[C@H](O)CO [Streptozotocin]
Conditions	Bliss interaction score
[1]	0.0662
[2]	-0.0853
[3]	-0.0449
[4]	-0.0464

fitness
Conditions	first compound 6.25 µg/mL	first compound 12.5 µg/mL	first compound 25 µg/mL	first compound 50 µg/mL
[5], partner 1.2 µg/mL	–	0.911	0.947	0.919
[5], partner 2.4 µg/mL	–	0.891	0.935	0.91
[5], partner 4.8 µg/mL	–	0.907	≥ 1	≥ 1
[6], partner 0.15 µg/mL	0.913	0.571	–	–
[6], partner 0.3 µg/mL	0.856	0.62	0.449	–
[6], partner 0.6 µg/mL	0.915	0.515	0.391	–
[7], partner 0.15 µg/mL	–	0.711	0.804	0.783
[7], partner 0.3 µg/mL	–	0.737	0.477	0.752
[7], partner 0.6 µg/mL	–	0.404	0.416	0.572
[8], partner 0.15 µg/mL	–	0.763	0.702	0.683
[8], partner 0.3 µg/mL	–	0.643	0.635	0.658
[8], partner 0.6 µg/mL	–	0.597	0.595	0.499

CCC[C@@H]1C[C@@H](C(=O)N[C@@H]([C@H]2O[C@H](SC)[C@H](O)[C@@H](O)[C@H]2O)[C@H](C)Cl)N(C)C1 [Clindamycin] + CCN(CC)CCOC(=O)c1ccc(N)cc1 [Procaine]
Conditions	Bliss interaction score
[1]	-0.11
[2]	-0.067
[3]	0.0552
[4]	-0.0363

fitness
Conditions	partner 85.5 µg/mL	partner 171 µg/mL	partner 342 µg/mL
[5], first compound 0.0125 µg/mL	0.772	0.723	0.746
[5], first compound 0.025 µg/mL	0.517	0.472	0.466
[5], first compound 0.05 µg/mL	0.205	0.186	0.19
[6], first compound 0.0625 µg/mL	0.504	0.483	0.506
[6], first compound 0.125 µg/mL	0.363	0.362	0.367
[6], first compound 0.25 µg/mL	0.344	0.335	0.339
[7], first compound 0.0312 µg/mL	0.706	–	–
[8], first compound 0.0625 µg/mL	0.196	–	–
[8], first compound 0.125 µg/mL	0.0583	0.0591	0.0589

fitness, one replicate
Conditions	first compound 0.0039 µg/mL	first compound 0.0078 µg/mL	first compound 0.015 µg/mL	first compound 0.0156 µg/mL	first compound 0.03 µg/mL	first compound 0.06 µg/mL
[5], partner 85.5 µg/mL	–	–	0.916	–	0.713	0.349
[5], partner 171 µg/mL	–	–	0.956	–	0.766	0.513
[5], partner 342 µg/mL	–	–	0.806	–	0.716	0.373
[6], partner 85.5 µg/mL	0.941	0.866	–	0.798	–	–
[6], partner 171 µg/mL	0.931	0.838	–	0.814	–	–
[6], partner 342 µg/mL	0.931	0.788	–	0.856	–	–

O=C(O[C@@H]1Cc2c(O)cc(O)cc2O[C@@H]1c1cc(O)c(O)c(O)c1)c1cc(O)c(O)c(O)c1 [EGCG] + CCN(CC)CCOC(=O)c1ccc(N)cc1 [Procaine]
Conditions	Bliss interaction score
[1]	0.0572
[2]	-0.0744
[3]	-0.124
[4]	0.0893

fitness
Conditions	partner 85.5 µg/mL	partner 171 µg/mL	partner 342 µg/mL
[5], first compound 12.5 µg/mL	0.965	0.984	0.912
[5], first compound 25 µg/mL	0.969	≥ 1	0.969
[5], first compound 50 µg/mL	0.996	0.903	≥ 1
[6], first compound 6.25 µg/mL	0.913	0.882	0.88
[6], first compound 12.5 µg/mL	0.715	0.75	0.599
[6], first compound 25 µg/mL	–	–	0.227
[7], first compound 12.5 µg/mL	0.729	0.764	0.77
[7], first compound 25 µg/mL	0.641	0.71	0.78
[8], first compound 12.5 µg/mL	0.821	0.821	0.833
[8], first compound 25 µg/mL	0.809	0.858	0.886
[8], first compound 50 µg/mL	–	0.854	–

COc1c(N2C[C@@H]3CCCN[C@@H]3C2)c(F)cc2c(=O)c(C(=O)O)cn(C3CC3)c12 [Moxifloxacin] + CN(N=O)C(=O)N[C@@H](C=O)[C@@H](O)[C@H](O)[C@H](O)CO [Streptozotocin]
Conditions	Bliss interaction score
[1]	0.0634
[2]	-0.0331
[3]	-0.14
[4]	0.0189

fitness, one replicate
Conditions	partner 0.15 µg/mL	partner 0.3 µg/mL	partner 0.6 µg/mL	partner 1.2 µg/mL	partner 2.4 µg/mL	partner 4.8 µg/mL
[5], first compound 0.0037 µg/mL	–	–	–	0.978	0.879	0.844
[5], first compound 0.0075 µg/mL	–	–	–	0.92	0.922	0.811
[5], first compound 0.015 µg/mL	–	–	–	0.878	0.872	0.811
[6], first compound 2 µg/mL	0.0199	0.0131	0	–	–	–
[6], first compound 4 µg/mL	0.0208	0.0015	0.0018	–	–	–
[6], first compound 8 µg/mL	0.0288	0.0107	0.0248	–	–	–
[8], first compound 0.06 µg/mL	0.653	0.639	0.605	–	–	–
[8], first compound 0.12 µg/mL	0.453	0.448	0.391	–	–	–

fitness
Conditions	partner 0.15 µg/mL	partner 0.3 µg/mL	partner 0.6 µg/mL	partner 1.2 µg/mL	partner 2.4 µg/mL	partner 4.8 µg/mL
[5], first compound 0.005 µg/mL	–	–	–	0.94	0.951	0.943
[5], first compound 0.01 µg/mL	–	–	–	0.951	0.95	0.928
[5], first compound 0.02 µg/mL	–	–	–	0.919	0.875	0.895
[6], first compound 0.0312 µg/mL	0.0402	0.04	0.0108	–	–	–
[6], first compound 0.0625 µg/mL	0.0394	0.0297	0.0273	–	–	–
[6], first compound 0.125 µg/mL	0.0412	0.0464	0.0221	–	–	–
[7], first compound 0.0075 µg/mL	0.69	0.635	0.392	–	–	–
[7], first compound 0.015 µg/mL	0.453	0.378	0.106	–	–	–
[7], first compound 0.03 µg/mL	0.0433	0.0331	0.0187	–	–	–
[8], first compound 0.0075 µg/mL	0.75	0.715	0.614	–	–	–
[8], first compound 0.015 µg/mL	0.691	0.681	0.59	–	–	–
[8], first compound 0.03 µg/mL	0.611	0.632	0.533	–	–	–

— the supplement of paper PMC10627819
